Source: patent US10150771B2, “Triazolopyrazinones as PDE1 inhibitors” (H. Lundbeck A/S, priority 2014, dated 2018)

Experiments:
Format in all cases: biochemical
[1] = molecular target: PDE1C (Homo sapiens, UniProt Q14123); experiment: PDE1 inhibition assay (SPA), PDE1C; details: for IC50: concentration required to reach 50% inhibition of the enzyme, 15 nM tritium labelled cAMP, read-out: PDE1C inhibition (nM or %): IC50
Method: (§1) PDE1 Inhibition Assay PDE1A, PDE1B and PDE1C assays were performed as follows: the assays were performed in 60 μL samples containing a fixed amount of the PDE1 enzym1 (sufficient to convert 20-25% of the cyclic nucleotide substrate), a buffer (50 mM HEPES pH 7.6; 10 mM MgCl2; 0.02% Tween20), 0.1 mg/ml BSA, 15 nM tritium labelled cAMP and varying amounts of inhibitors. Reactions were initiated by addition of the cyclic nucleotide substrate, and reactions were allowed to proceed for 1 h at room temperature before being terminated through mixing with 20 μL (0.2 mg) yttrium silicate SPA beads (PerkinElmer). The beads were allowed to settle for 1 h in the dark before the plates were counted in a Wallac 1450 Microbeta counter. The measured signals were converted to activity relative to an uninhibited control (100%) and IC50 values were calculated using XIFit (model 205, IDBS).

[2] = molecular target: PDE1B (Homo sapiens, UniProt Q01064); experiment: PDE1 inhibition assay (SPA), PDE1B; details: for IC50: concentration required to reach 50% inhibition of the enzyme, 15 nM tritium labelled cAMP, read-out: PDE1B inhibition (nM or %): IC50
Method: as §1

[3] = molecular target: PDE1A (Homo sapiens, UniProt P54750); experiment: PDE1 inhibition assay (SPA), PDE1A; details: for IC50: concentration required to reach 50% inhibition of the enzyme, 15 nM tritium labelled cAMP, read-out: PDE1A inhibition (nM or %): IC50; for inhibition at 10 µM: 1 h, % inhibition of the enzyme at a concentration of 10 micro molar of the compound, read-out: PDE1A inhibition (nM or %): % inhib
Method: as §1

PDE1A, sequence (P54750 whole entry): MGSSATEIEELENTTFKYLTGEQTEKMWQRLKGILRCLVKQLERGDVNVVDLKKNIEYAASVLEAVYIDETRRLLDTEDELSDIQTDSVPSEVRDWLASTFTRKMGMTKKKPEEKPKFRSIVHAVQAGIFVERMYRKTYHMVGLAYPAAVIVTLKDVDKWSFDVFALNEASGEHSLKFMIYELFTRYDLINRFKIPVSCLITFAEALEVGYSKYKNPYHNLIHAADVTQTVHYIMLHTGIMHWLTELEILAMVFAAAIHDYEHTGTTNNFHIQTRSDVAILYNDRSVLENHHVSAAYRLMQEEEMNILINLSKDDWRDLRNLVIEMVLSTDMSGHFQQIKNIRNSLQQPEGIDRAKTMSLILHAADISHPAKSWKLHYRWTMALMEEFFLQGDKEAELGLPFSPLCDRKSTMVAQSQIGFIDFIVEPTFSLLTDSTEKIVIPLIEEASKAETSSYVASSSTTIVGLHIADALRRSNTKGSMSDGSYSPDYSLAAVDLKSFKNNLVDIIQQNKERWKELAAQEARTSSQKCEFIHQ
PDE1B, sequence (Q01064 whole entry): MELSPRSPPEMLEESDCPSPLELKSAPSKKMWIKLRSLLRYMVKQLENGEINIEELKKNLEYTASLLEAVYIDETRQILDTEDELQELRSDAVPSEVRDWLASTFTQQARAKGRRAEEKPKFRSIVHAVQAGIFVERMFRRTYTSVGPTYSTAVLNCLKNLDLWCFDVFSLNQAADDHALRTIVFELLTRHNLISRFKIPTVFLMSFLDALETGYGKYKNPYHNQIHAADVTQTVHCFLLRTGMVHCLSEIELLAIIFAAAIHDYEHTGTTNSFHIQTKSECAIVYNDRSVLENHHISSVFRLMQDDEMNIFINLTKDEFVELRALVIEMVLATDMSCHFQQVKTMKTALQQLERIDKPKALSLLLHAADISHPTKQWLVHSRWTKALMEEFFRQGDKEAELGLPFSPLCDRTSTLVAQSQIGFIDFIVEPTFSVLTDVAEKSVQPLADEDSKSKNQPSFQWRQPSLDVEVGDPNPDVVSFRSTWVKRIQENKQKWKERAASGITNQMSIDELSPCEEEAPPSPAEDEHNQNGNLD
PDE1C, sequence (Q14123 whole entry): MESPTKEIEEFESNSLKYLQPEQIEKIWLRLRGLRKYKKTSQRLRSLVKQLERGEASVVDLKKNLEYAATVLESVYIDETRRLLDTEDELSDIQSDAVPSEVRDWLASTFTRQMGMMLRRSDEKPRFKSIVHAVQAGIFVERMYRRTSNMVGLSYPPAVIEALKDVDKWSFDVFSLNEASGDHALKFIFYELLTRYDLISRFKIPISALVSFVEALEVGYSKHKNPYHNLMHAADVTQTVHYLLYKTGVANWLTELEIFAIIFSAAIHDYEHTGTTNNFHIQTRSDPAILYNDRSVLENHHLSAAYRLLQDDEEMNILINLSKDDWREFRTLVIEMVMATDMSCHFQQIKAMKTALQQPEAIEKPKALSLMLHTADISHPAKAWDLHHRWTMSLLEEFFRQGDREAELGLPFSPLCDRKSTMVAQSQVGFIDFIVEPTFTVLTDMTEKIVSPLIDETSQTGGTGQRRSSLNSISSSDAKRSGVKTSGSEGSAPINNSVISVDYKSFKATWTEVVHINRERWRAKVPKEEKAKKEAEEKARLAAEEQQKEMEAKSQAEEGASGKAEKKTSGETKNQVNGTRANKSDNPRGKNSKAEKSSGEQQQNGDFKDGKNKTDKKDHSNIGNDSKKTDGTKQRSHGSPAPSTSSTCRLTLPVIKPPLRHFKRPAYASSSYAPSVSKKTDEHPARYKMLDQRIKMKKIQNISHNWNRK

Row | IC50 [1] [nM] | IC50 [2] [nM] | IC50 [3] [nM] | inhibition at 10 µM [3] [%] | PDE1C inhibition (nM or %): % inhib ([1]; % inhibition of the enzyme at a concentration of 10 micro molar of the compound) [%] | inhibition at 10 µM ([2]; 1 h, % inhibition of the enzyme at a concentration of 10 micro molar of the compound, read-out: PDE1B inhibition (nM or %): % inhib) [%] | Structure (SMILES)
1 | 190 | 1200 | 1100 | – | – | – | CCCc1nnc2c(=O)n(Cc3cccc(F)c3)ccn12 [7-(3-Fluorobenzyl)-3-propyl-[1,2,4]triazolo[4,3-a]pyrazin-8(7H)-one]
2 | 290 | 1800 | 2980 | – | – | – | CCCc1nnc2c(=O)n(Cc3cccc(F)c3)c([C@H]3CCOC3)cn12 (single isomer, unassigned)
3 | 1700 | 7200 | – | 67 | – | – | O=c1c2nnc(C3COC3)n2ccn1Cc1cccc(F)c1 [7-(3-Fluorobenzyl)-3-(oxetan-3-yl)-[1,2,4]triazolo[4,3-a]pyrazin-8(7H)-one]
4 | 360 | 1200 | 970 | – | – | – | CCCc1nnc2c(=O)n(Cc3ccc(F)cc3)ccn12 [7-(4-Fluorobenzyl)-3-propyl-[1,2,4]triazolo[4,3-a]pyrazin-8(7H)-one]
5 | 95 | 820 | 840 | – | – | – | CCCc1nnc2c(=O)n(CC3CCCC3)ccn12 [7-(Cyclopentylmethyl)-3-propyl-[1,2,4]triazolo[4,3-a]pyrazin-8(7H)-one]
6 | 87 | 190 | 220 | – | – | – | O=c1c2nnc(C3CCOCC3)n2ccn1CC1CCCCC1 [7-(Cyclohexylmethyl)-3-(tetrahydro-2H-pyran-4-yl)-[1,2,4]triazolo[4,3-a]pyrazin-8(7H)-one]
7 | 170 | 1600 | 1500 | – | – | – | CCCc1nnc2c(=O)n(Cc3cccc(C)c3)ccn12 [7-(3-Methylbenzyl)-3-propyl-[1,2,4]triazolo[4,3-a]pyrazin-8(7H)-one]
8 | 420 | 1900 | 1200 | – | – | – | O=c1c2nnc(CC3CCOC3)n2ccn1Cc1cccc(F)c1 (stereo not drawn) [7-(3-Fluorobenzyl)-3-((tetrahydrofuran-3-yl)methyl)-[1,2,4]triazolo[4,3-a]pyrazin-8(7H)-one]
9 | 180 | 510 | 858 | – | – | – | CCCc1nnc2c(=O)n(Cc3cccc(F)c3)cc(CC)n12 [5-ethyl-7-(3-fluorobenzyl)-3-propyl-[1,2,4]triazolo[4,3-a]pyrazin-8(7H)-one]
10 | 970 | 2700 | 3300 | – | – | – | CCCc1nnc2c(=O)n(CC(C)C)ccn12 [7-Isobutyl-3-propyl-[1,2,4]triazolo[4,3-a]pyrazin-8(7H)-one]
11 | 170 | 83 | 620 | – | – | – | CCCc1nnc2c(=O)n(Cc3ccc(Cl)cc3)ccn12 [7-(4-Chlorobenzyl)-3-propyl-[1,2,4]triazolo[4,3-a]pyrazin-8(7H)-one]
12 | 63 | 210 | 179 | – | – | – | CCCc1nnc2c(=O)n(CC3C4CC5CC(C4)CC3C5)ccn12 (stereo not drawn) [7-(((1r,3r,5r,7r)-adamantan-2-yl)methyl)-3-propyl-[1,2,4]triazolo[4,3-a]pyrazin-8(7H)-one]
13 | 210 | 780 | 500 | – | – | – | O=c1c2nnc(C3CC3)n2ccn1Cc1cccc(F)c1 [3-Cyclopropyl-7-(3-fluorobenzyl)-[1,2,4]triazolo[4,3-a]pyrazin-8(7H)-one]
14 | 120 | 40 | 79 | – | – | – | CCCc1nnc2c(=O)n(CC3CCC(C)CC3)ccn12 (single isomer, unassigned) [7-(((1 r,4r)-4-methylcyclohexyl)methyl)-3-propyl-[1,2,4]triazolo[4,3-a]pyrazin-8(7H)-one]
15 | 2 | 9 | 6 | – | – | – | Cc1cccc(Cc2cn3c(C4CCOCC4)nnc3c(=O)n2Cc2cccc(F)c2)c1 [7-(3-fluorobenzyl)-6-(3-methylbenzyl)-3-(tetrahydro-2H-pyran-4-yl)-[1,2,4]triazolo[4,3-a]pyrazin-8(7H)-one]
16 | 8 | 40 | 47 | – | – | – | O=c1c2nnc(C3CCOCC3)n2cc(Cc2cccc(F)c2)n1Cc1cccc(F)c1 [6,7-bis(3-fluorobenzyl)-3-(tetrahydro-2H-pyran-4-yl)-[1,2,4]triazolo[4,3-a]pyrazin-8(7H)-one]
17 | 47 | 81 | 96 | – | – | – | CCCc1nnc2c(=O)n(CC3CCCCC3)ccn12 [7-(Cyclohexylmethyl)-3-propyl-[1,2,4]triazolo[4,3-a]pyrazin-8(7H)-one]

Row | IC50 [1] [nM] | IC50 [2] [nM] | IC50 [3] [nM] | inhibition at 10 µM [3] [%] | PDE1C inhibition (nM or %): % inhib ([1]; % inhibition of the enzyme at a concentration of 10 micro molar of the compound) [%] | inhibition at 10 µM ([2]; 1 h, % inhibition of the enzyme at a concentration of 10 micro molar of the compound, read-out: PDE1B inhibition (nM or %): % inhib) [%] | Structure (SMILES)
18 | 270 | 1100 | 1100 | – | – | – | CCCc1nnc2c(=O)n(Cc3cccc(F)c3)c([C@@H]3CCOC3)cn12 (single isomer, unassigned)
19 | 6 | 12 | 15 | – | – | – | O=c1c2nnc(C3CCOCC3)n2cc(Cc2ccccc2)n1Cc1ccc(F)cc1 [6-benzyl-7-(4-fluorobenzyl)-3-(tetrahydro-2H-pyran-4-yl)-[1,2,4]triazolo[4,3-a]pyrazin-8(7H)-one]
20 | 6 | 17 | 12 | – | – | – | O=c1c2nnc(C3CCOCC3)n2cc(Cc2ccc(F)cc2)n1CC1CCCCC1 [7-(cyclohexylmethyl)-6-(4-fluorobenzyl)-3-(tetrahydro-2H-pyran-4-yl)-[1,2,4]triazolo[4,3-a]pyrazin-8(7H)-one]
21 | 10 | 43 | 46 | – | – | – | O=c1c2nnc(C3CCOCC3)n2cc(Cc2ccc(F)cc2)n1Cc1cccc(F)c1 [7-(3-fluorobenzyl)-6-(4-fluorobenzyl)-3-(tetrahydro-2H-pyran-4-yl)-[1,2,4]triazolo[4,3-a]pyrazin-8(7H)-one]
22 | 380 | 1400 | 2000 | – | – | – | O=c1c2nnc(CC(F)(F)F)n2ccn1Cc1cccc(F)c1 [7-(3-Fluorobenzyl)-3-(2,2,2-trifluoroethyl)-[1,2,4]triazolo[4,3-a]pyrazin-8(7H)-one]
23 | 42 | 33 | 43 | – | – | – | O=c1c2nnc(C3CCOCC3)n2ccn1CC1CCCCCC1 [7-(Cycloheptylmethyl)-3-(tetrahydro-2H-pyran-4-yl)-[1,2,4]triazolo[4,3-a]pyrazin-8(7H)-one]
24 | 6 | 22 | 24 | – | – | – | O=c1c2nnc(C3CCOCC3)n2cc(Cc2cccc(F)c2)n1CC1CCCCC1 [7-(cyclohexylmethyl)-6-(3-fluorobenzyl)-3-(tetrahydro-2H-pyran-4-yl)-[1,2,4]triazolo[4,3-a]pyrazin-8(7H)-one]
25 | 3 | 19 | 21 | – | – | – | Cc1ccc(Cc2cn3c(C4CCOCC4)nnc3c(=O)n2CC2CCCC2)cc1 [7-(cyclopentylmethyl)-6-(4-methylbenzyl)-3-(tetrahydro-2H-pyran-4-yl)-[1,2,4]triazolo[4,3-a]pyrazin-8(7H)-one]
26 | 750 | 840 | 500 | – | – | – | O=c1c2nnc(C3CCOC3)n2ccn1Cc1ccc(Cl)cc1 (stereo not drawn) [7-(4-Chlorobenzyl)-3-(tetrahydrofuran-3-yl)-[1,2,4]triazolo[4,3-a]pyrazin-8(7H)-one]
27 | 2400 | 800 | 1000 | – | – | – | CCc1nnc2c(=O)n(Cc3ccc(Cl)cc3)ccn12 [7-(4-Chlorobenzyl)-3-ethyl-[1,2,4]triazolo[4,3-a]pyrazin-8(7H)-one]
28 | 1 | 3 | 2 | – | – | – | Cc1cccc(Cc2cn3c(C4CCOCC4)nnc3c(=O)n2CC2CCCCC2)c1 [7-(cyclohexylmethyl)-6-(3-methylbenzyl)-3-(tetrahydro-2H-pyran-4-yl)-[1,2,4]triazolo[4,3-a]pyrazin-8(7H)-one]
29 | 160 | 1300 | 1400 | – | – | – | CCCc1nnc2c(=O)n(Cc3cccc(Cl)c3)ccn12 [7-(3-Chlorobenzyl)-3-propyl-[1,2,4]triazolo[4,3-a]pyrazin-8(7H)-one]
30 | – | – | – | 44 | 41 | 46 | CCCc1nnc2c(=O)n(Cc3ccccc3C(F)(F)F)ccn12 [3-Propyl-7-(2-(trifluoromethyl)benzyl)-[1,2,4]triazolo[4,3-a]pyrazin-8(7H)-one]
31 | 50 | 180 | 117 | – | – | – | CCCc1nnc2c(=O)n(Cc3cccc(F)c3)c(CC)cn12 [6-ethyl-7-(3-fluorobenzyl)-3-propyl-[1,2,4]triazolo[4,3-a]pyrazin-8(7H)-one]
32 | 620 | 3000 | 2900 | – | – | – | O=c1c2nnc(CCF)n2ccn1Cc1cccc(F)c1 [7-(3-Fluorobenzyl)-3-(2-fluoroethyl)-[1,2,4]triazolo[4,3-a]pyrazin-8(7H)-one]
33 | 2 | 4 | 1 | – | – | – | O=c1c2nnc(C3CCOCC3)n2cc(Cc2ccccc2)n1CC1CCCCCC1 [6-benzyl-7-(cycloheptylmethyl)-3-(tetrahydro-2H-pyran-4-yl)-[1,2,4]triazolo[4,3-a]pyrazin-8(7H)-one]
34 | 65 | 53 | 83 | – | – | – | CCCc1nnc2c(=O)n(CC3CCC(C)CC3)ccn12 (racemic) [7-((4-methylcyclohexyl)methyl)-3-propyl-[1,2,4]triazolo[4,3-a]pyrazin-8(7H)-one]
